Data from US9242984B2, “Pyrazolyl derivatives as Syk inhibitors” (Merck Sharp & Dohme Corp., priority 2012, dated 2016).

Target: T1, recombinant human Syk (GST-hSyk fusion protein) (Homo sapiens, UniProt P43405)
T1 construct: purchased Carna Biosciences 08-176
Assay: Homogeneous Time-Resolved Fluorescence (HTRF) assay for the recombinant human Syk enzyme
Type: biochemical
Settings: 10-dose titration, 25 μM ATP; read-out: rhSYK IC50
Procedure: Syk inhibition may be determined using the following assay protocol:
Homogeneous Time-Resolved Fluorescence (HTRF) Assay for the Recombinant Human Syk Enzyme:
A recombinant GST-hSyk fusion protein was used to measure potency of compounds to inhibit human Syk activity. The recombinant human GST-Syk (Carna Biosciences #08-176) (5 pM final concentration) was incubated with various concentrations of the inhibitor diluted in DMSO (0.1% final concentration) for 10 minutes at room temperature in 15 mM Tris-HCl (pH 7.5), 0.01% tween 20, 2 mM DTT in 384 well plate format. To initiate the reaction the biotinylated substrate peptide (250 nM final concentration) that contains the phosphorylation site for Syk was added with magnesium (5 mM final concentration) and ATP (25 μM final concentration). Final volume of the reaction was 10 μL. Phosphorylation of the peptide was allowed to proceed for 45 minutes at room temperature. To quench the reaction and detect the phosphorylated product, 2 nM of a Europium-anti-phosphotyrosine antibody (Perkin Elmer #AD0161) and 70 nM SA-APC (Perkin-Elmer #CR130-100) were added together in 15 mM Tris pH 7.5, 40 mM EDTA, 0.01% tween 20. Final volume of the quenching solution was 10 μL. The resulting HTRF signal was measured after 30 minutes on an EnVision (Perkin-Elmer) reader using a time-resolved fluorescence protocol. IC50 was determined following 10-dose titration (10 μM to 0.508 nM) and four parameter logistic curve fitting using the Merck Assay Data Analyzer. The rhSyk activity (IC50) is expressed as +++(100 nM or less), ++(between 100 and 1000 nM), +(between 1 and 10 μM).

IC50	Compound
0.11 µM	Cc1cc(Nc2nccc(C(F)(F)F)n2)cc(-c2cnn(CC3(O)CCNCC3)c2)c1 [Example 12.1, 4-((4-(3-methyl-5-((4-(trifluoromethyl)pyrimidin-2-yl)amino)phenyl)-1H-pyrazol-1-yl)methyl)piperidin-4-ol]
0.0483 µM	Cc1cc(Nc2ncccn2)cc(-c2cnn(C3CC(C(N)=O)C3)c2)c1 (single isomer, unassigned) [Example 30.1, 3-(4-(3-Methyl-5-(pyrimidin-2-ylamino)phenyl)-1H-pyrazol-1-yl)cyclobutanecarboxamide]
0.0575 µM	Cc1cc(Nc2ncccn2)cc(-c2cnn(C(C)c3ccc(C(N)=O)cc3)c2)c1 (single isomer, unassigned) [Example 28.1, 4-(1-(4-(3-Methyl-5-(pyrimidin-2-ylamino)phenyl)-1H-pyrazol-1-yl)ethyl)benzamide]

Same assay, conditions: IC50 class; 10-dose titration, 25 μM ATP; read-out: rhSYK Activity

IC50	Compound
0.1 to 1 µM	CCOC(=O)CCn1cc(-c2cc(C)cc(Nc3cc(C)c(Cl)cn3)n2)cn1 [Example 1.25, ethyl 3-(4-{6-[(5-chloro-4-methylpyridin-2-yl)amino]-4-methylpyridin-2-yl}-1H-pyrazol-1-yl)propanoate]
≤ 0.1 µM	COc1nc(Nc2cc(C)cc(-c3cnn(CC4CNC(=O)O4)c3)c2)ncc1F (centres unmarked) [Example 2.25, 5-[(4-{3-[(5-fluoro-4-methoxypyrimidin-2-yl)amino]-5-methylphenyl}-1H-pyrazol-1-yl)methyl]-1,3-oxazolidin-2-one]
≤ 0.1 µM	Cc1cc(Nc2nccc(C(F)(F)F)n2)cc(-c2cnn(CC3NC(=O)OC3C)c2)c1 (centres unmarked) [Example 3.129, 5-methyl-4-{[4-(3-methyl-5-{[4-(trifluoromethyl)pyrimidin-2-yl]amino}phenyl)-1H-pyrazol-1-yl]methyl}-1,3-oxazolidin-2-one]
0.1 to 1 µM	Cc1cc(Nc2nccc(C(F)(F)F)n2)cc(-c2cnn(CC3(O)CCNCC3)c2)c1 [Example 12.1, 4-((4-(3-methyl-5-((4-(trifluoromethyl)pyrimidin-2-yl)amino)phenyl)-1H-pyrazol-1-yl)methyl)piperidin-4-ol]
≤ 0.1 µM	COc1nc(Nc2cc(C)cc(-c3cnn(C[C@@H](O)C(=O)O)c3)c2)ncc1Cl [Example 11.9, (2R)-3-(4-{3-[(5-chloro-4-methoxy-pyrimidin-2-yl)-amino]-5-methyl-phenyl}-1H-pyrazol-1-yl)-2-hydroxy-propanoic acid]
≤ 0.1 µM	O=C(O)C1CCC(n2cc(-c3cc(Cl)cc(Nc4cc(C(F)(F)F)ccn4)n3)cn2)CC1 (centres unmarked) [Example 1.54, 4-[4-(4-chloro-6-{[4-(trifluoromethyl)pyridin-2-yl]amino}pyridin-2-yl)-1H-pyrazol-1-yl]cyclohexanecarboxylic acid]
≤ 0.1 µM	O=C1NCC(Cn2cc(-c3cccc(Nc4cc(C(F)F)ccn4)n3)cn2)O1 (centres unmarked) [Example 3.82, 5-{[4-(6-{[4-(difluoromethyl)pyridin-2-yl]amino}pyridin-2-yl)-1H-pyrazol-1-yl]methyl}-1,3-oxazolidin-2-one]
≤ 0.1 µM	Cc1cc(Nc2nccc(C(F)(F)F)n2)cc(-c2cnn(C[C@H](O)C(N)=O)c2)c1 [Example 8.16, (2s)-2-hydroxy-3-[4-(3-methyl-5-{[4-(trifluorometh-yl)pyrimidin-2-yl]amino}phenyl)-1H-pyrazol-1-yl]propanamide]
0.1 to 1 µM	Cc1cc(Nc2nccc(C(F)(F)F)n2)cc(-n2ccc(Cl)n2)c1 [19.9]
1 to 10 µM	Cc1cc(Nc2cc(C(F)(F)F)ccn2)nc(-c2cc(C(F)(F)F)nn2C)n1 [Example 1.46, 6-methyl-2-[1-methyl-3-(trifluoromethyl)-1H-pyrazol-5-yl]-N-[4-(trifluoromethyl)pyridin-2-yl]pyrimidin-4-amine]
≤ 0.1 µM	Cc1cc(Nc2nccc(C)n2)cc(-c2cnn(C3CCC(C(=O)O)CC3)c2)c1 (centres unmarked) [Example 1.59, 4-(4-{3-methyl-5-[(4-methylpyrimidin-2-yl)amino]phenyl}-1H-pyrazol-1-yl)cyclohexanecarboxylic acid]
≤ 0.1 µM	Cc1cc(Nc2nccc(C(F)F)n2)cc(-c2cnn(C(C[C@@H](C)O)[C@H](C)O)c2)c1 (stereo in doubt) [Example 2.54, 3-[4-(3-{[4-(difluoromethyl)pyrimidin-2-yl]amino}-5-methylphenyl)-1H-pyrazol-1-yl]hexane-2,5-diol]
≤ 0.1 µM	Cc1cc(Nc2nccc(C(F)(F)F)n2)cc(-c2cnn(C3CCC(C(=O)O)CC3O)c2)c1 (centres unmarked) [Example 5.39, 3-hydroxy-4-[4-(3-methyl-5-{[4-(trifluoromethyl)pyrimidin-2-yl]amino}phenyl)-1H-pyrazol-1-yl]cyclohexane-carboxylic acid]
≤ 0.1 µM	Cc1cc(Nc2ncccn2)cc(-c2cnn(C3CC(C(N)=O)C3)c2)c1 (single isomer, unassigned) [Example 30.1, 3-(4-(3-Methyl-5-(pyrimidin-2-ylamino)phenyl)-1H-pyrazol-1-yl)cyclobutanecarboxamide]
≤ 0.1 µM	4-{[4-(6-{[4-(difluoromethyl)pyridin-2-yl]amino}-4-methylpyridin-2-yl)-1H-pyrazol-1-yl)methyl}pyrrolidin-2-one [Example 1.37]
≤ 0.1 µM	Cc1cc(Nc2nccc(C(F)F)n2)cc(-c2cnn(CC3CC(=O)NC34CC4)c2)c1 (centres unmarked) [Example 3.89, 7-{[4-(3-{[4-(difluoromethyl)pyrimidin-2-yl]amino}-5-methylphenyl)-1H-pyrazol-1-yl]methyl}-4-azaspiro[2.4]heptan-5-one]

IC50	Compound
≤ 0.1 µM	COC1CC(O)(Cn2cc(-c3cc(C)cc(Nc4nccc(C)n4)c3)cn2)C1 (centres unmarked) [Example 12.3, 3-methoxy-1-[(4-{3-methyl-5-[(4-methylpyrimidin-2-yl)amino]phenyl}-1H-pyrazol-1-yl)methyl]-cyclobutanol]
≤ 0.1 µM	Cc1cc(Nc2nccc(C(F)(F)F)n2)cc(-c2cnn(Cc3ccnnc3)c2)c1 [Example 3.32, N-{3-methyl-5-[1-(pyridazin-4-ylmethyl)-1H-pyrazol-4-yl]phenyl}-4-(trifluoromethyl)pyrimidin-2-amine]
≤ 0.1 µM	Cc1cc(Nc2nccc(C(F)(F)F)n2)cc(-c2cnn(CC(N)=O)c2)c1 [Example 3.37, 2-[4-(3-methyl-5-{[4-(trifluoromethyl)pyrimidin-2-yl]amino}-phenyl)-1H-pyrazol-1-yl]acetamide]
≤ 0.1 µM	Cc1cc(Nc2cc(C(C)(F)F)ccn2)nc(-c2cnn(CC3CNC(=O)O3)c2)c1 (centres unmarked) [Example 3.85, 5-{[4-(6-{[4-(1,1-difluoroethyl)pyridin-2-yl]amino}-4-methylpyridin-2-yl)-1H-pyrazol-1-yl]methyl}-1,3-oxazolidin-2-one]
≤ 0.1 µM	Cc1cc(Nc2nccc(C(F)(F)F)n2)cc(-c2cnn(CS(N)(=O)=O)c2)c1 [Example 3.39, 1-[4-(3-methyl-5-{[4-(trifluoromethyl)pyrimidin-2-yl]amino}-phenyl)-1H-pyrazol-1-yl]methane-sulfonamide]
≤ 0.1 µM	COc1ccnc(Nc2cc(C)cc(-c3cnn(CCC(N)=O)c3)c2)n1 [Example 3.40, 3-(4-{3-[(4-methoxypyrimidin-2-yl)amino]-5-methylphenyl}-1H-pyrazol-1-yl)propanamide]
≤ 0.1 µM	Cc1cc(Nc2nccc(C(F)(F)F)n2)cc(-c2cnn(CC(=O)N3CCC3)c2)c1 [Example 3.26, N-{3-[1-(2-azetidin-1-yl-2-oxoethyl)-1H-pyrazol-4-yl]-5-methylphenyl}-4-(trifluoromethyl)pyrimidin-2-amine]
≤ 0.1 µM	Cc1cc(Nc2nccc(C(C)C)n2)cc(-c2cnn(CCC(N)=O)c2)c1 [Example 2.8, 3-[4-(3-methyl-5-{[4-(1-methylethyl)-pyrimidin-2-yl]-amino}phenyl)-1H-pyrazol-1-yl]propanamide]
≤ 0.1 µM	Cc1cc(Nc2nccc(C(C)F)n2)cc(-c2cnn(C[C@H](O)C(N)=O)c2)c1 (stereo partly drawn) [Example 6.8, (2S)-3-[4-(3-{[4-(1-fluoroethyl)-pyrimidin-2-yl]amino}-5-methylphenyl)-1H-pyrazol-1-yl]-2-hydroxy-propanamide]
≤ 0.1 µM	Cc1cc(Nc2nccc(C(F)F)n2)cc(-c2cnn(CC3OC(=O)NC34CC4)c2)c1 (centres unmarked) [Example 3.94, 7-{[4-(3-{[4-(difluoromethyl)pyrimidin-2-yl]amino}-5-methylphenyl)-1H-pyrazol-1-yl]methyl}-6-oxa-4-azaspiro[2.4]heptan-5-one]
≤ 0.1 µM	Cc1cc(Nc2ncccn2)cc(-c2cnn(C(C)c3ccc(C(N)=O)cc3)c2)c1 (single isomer, unassigned) [Example 28.1, 4-(1-(4-(3-Methyl-5-(pyrimidin-2-ylamino)phenyl)-1H-pyrazol-1-yl)ethyl)benzamide]
≤ 0.1 µM	COc1ccc2c(-c3cc(C)cc(Nc4nccc(C(F)(F)F)n4)c3)cnn2n1 [Example 2.36, N-[3-(6-methoxypyrazolo[1,5-b]pyridazin-3-yl)-5-methylphenyl]-4-(trifluoromethyl)pyrimidin-2-amine]
≤ 0.1 µM	Cc1cc(Nc2nccc(C(F)F)n2)cc(-c2cnn(CC(O)C(C)(C)C)c2)c1 (centres unmarked) [Example 5.30, 1-[4-(3-{[4-(difluoromethyl)pyrimidin-2-yl]amino}-5-methylphenyl)-1H-pyrazol-1-yl]-3,3-dimethylbutan-2-ol]
≤ 0.1 µM	Cc1cc(Nc2nccc(C(F)(F)F)n2)cc(-c2cnn3ncccc23)c1 [Example 2.35, N-(3-methyl-5-pyrazolo[1,5-b]pyridazin-3-ylphenyl)-4-(trifluoromethyl)pyrimidin-2-amine]
0.1 to 1 µM	Cc1cc(Nc2nccc(C(F)(F)F)n2)cc(-c2cn[nH]c2)n1 [Example 1.44, N-[2-methyl-6-(1H-pyrazol-4-yl)pyridin-4-yl]-4-(trifluoro-methyl)pyrimidin-2-amine]
≤ 0.1 µM	Cc1cc(Nc2nccc(C(F)F)n2)cc(-c2cn[nH]c2)c1 [Example 1.65, 4-(difluoromethyl)-N-[3-methyl-5-(1H-pyrazol-4-yl)phenyl]pyrimidin-2-amine]
